This data set can be described thus: hygroscopicity analysis (DVS). The data set is classed as physicochemical. The text has this: The crystal form B of pyrroloquinoline quinone provided by the present invention is characterized by solid-state methods, such as an X-ray powder diffraction (XRPD), a thermogravimetric analysis (TG), a differential scanning calorimetry analysis (DSC), an infrared (IR) analysis, and a hygroscopicity analysis (DVS). A solid sample of the crystal form B of pyrroloquinoline quinone obtained in Example 1 was subjected to a hygroscopicity analysis.

Molecules are shown by their SMILES.

In the case of `O=C(O)c1cc(C(=O)O)c2c(n1)C(=O)C(=O)c1cc(C(=O)O)[nH]c1-2` [4,5-Dihydro-4,5-dioxo-1H-pyrrolo[2,3-f]quinoline-2,7,9-tricarboxylic acid], where the note is “at a relative humidity of 85-95%, FIG. 5”, the “water adsorption / solid form change” value is “adsorbed a molecule of water and was converted into a monohydrate compound”. Besides, the hygroscopicity entry (solid sample obtained in Example 1, FIG. 5) is listed as “low hygroscopicity”.

(Values after US10562895B2, “Pyrroloquinoline quinone B crystal form and preparation method therefor” (ZHUCHENG HAOTIAN PHARM CO., LTD, priority 2015, dated 2020).)
